Results reported in publication PMC5706701, “Development of a homogenous high-throughput assay for inositol hexakisphosphate kinase 1 activity” (PLoS ONE, 2017).
Structures can show the parent of a compound that is named as a salt. Where two headings read alike, the source gives them in different places.

Biological target: T1, Human IP6K1 (Homo sapiens, UniProt Q92551)
T1 construct: GST (N, cleaved yes); made in house; host or cells: C43 E. coli, pGEX-6P-2
Assay: IP6K1 high-throughput screen of the Sigma LOPAC (ADP-Glo Max, single point);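 also: final compound concentration 10µM in 5% DMSO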
Format: biochemical

[1] = Sigma LOPAC single-point screen, ADP-Glo Max raw signal per well
[2] = Sigma LOPAC single-point screen, Z-score from plate average and StDev
[3] = LOPAC single-point screen, ADP-Glo Max raw signal per well
[4] = LOPAC single-point screen, Z-score from raw signal with plate average and StDev
[5] = LOPAC single-point screen, Z-score against plate average and StDev
[6] = LOPAC single-point screen, ADP-Glo Max luminescence raw signal per well
[7] = LOPAC single-point screen, Z-score relative to plate average and StDev

T1 sequence (Q92551 whole entry): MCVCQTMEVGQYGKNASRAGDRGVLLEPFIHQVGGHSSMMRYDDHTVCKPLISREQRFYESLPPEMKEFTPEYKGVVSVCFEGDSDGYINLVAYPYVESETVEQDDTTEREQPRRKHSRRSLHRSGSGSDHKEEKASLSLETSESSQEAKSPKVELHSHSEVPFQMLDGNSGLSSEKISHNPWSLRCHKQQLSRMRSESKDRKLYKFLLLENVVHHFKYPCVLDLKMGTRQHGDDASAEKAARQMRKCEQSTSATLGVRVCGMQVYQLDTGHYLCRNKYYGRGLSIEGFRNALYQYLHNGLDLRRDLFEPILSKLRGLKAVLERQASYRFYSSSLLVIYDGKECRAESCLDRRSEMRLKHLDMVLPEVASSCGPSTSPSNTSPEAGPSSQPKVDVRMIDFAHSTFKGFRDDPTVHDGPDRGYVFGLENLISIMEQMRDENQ

NC(CCCP(=O)(O)O)C(=O)O (racemic) [(±)-2-Amino-5-phosphonopentanoic acid]
Raw Signal [1]: 60299
Z-score [2]: 0.4202

COc1ccc2c(c1OC)C(=O)O[C@@H]2[C@H]1c2c(cc3c(c2OC)OCO3)CCN1C.Cl [Noscapine hydrchloride]
Raw Signal [3]: 53510
Z-score [4]: -0.1485

Cn1cc(C(=O)OCC2CCN(CCNS(C)(=O)=O)CC2)c2ccccc21 [GR 113808]
Raw Signal [3]: 56278
Z-score [4]: -0.288

C[C@@H](N)Cc1cnc[nH]1.Cl.Cl
Raw Signal: 55341
Z-score: 0.03533

CCCNC(C)C(=O)Nc1ccccc1C (centres unmarked) [Prilocaine hydrochloride]
Raw Signal [3]: 55610
Z-score [5]: -0.08039

COc1ccc(Cc2nccc3cc(OC)c(OC)cc23)cc1OC [Papaverine hydrochloride]
Raw Signal [1]: 61808
Z-score [2]: 1.246

CCOC(=O)C1=C(C)NC(=S)NC1c1cccc(O)c1 (centres unmarked) [Monastrol]
Raw Signal [3]: 54262
Z-score [5]: -0.0221

N[C@@H](Cc1ccc(O)c(I)c1)C(=O)O [3-Iodo-L-tyrosine]
Raw Signal [6]: 50230
Z-score [7]: -0.6996

C/C=C1\C(=O)C[C@H]2[C@@H]3CCC4=CC(=O)CC[C@]4(C)[C@H]3CC[C@]12C [(Z)-Gugglesterone]
Raw Signal [6]: 49571
Z-score [7]: -1.1365

O=C(O)c1nn(Cc2ccc(Cl)cc2Cl)c2ccccc12 [Lonidamine]
Raw Signal [3]: 56276
Z-score [5]: 0.3163

CC#C[C@]1(O)CC[C@H]2[C@@H]3CCC4=CC(=O)CCC4=C3[C@@H](c3ccc(N(C)C)cc3)C[C@@]21C [Mifepristone]
Raw Signal [1]: 60991
Z-score [2]: 1.109

NS(=O)(=O)c1cc(C(=O)O)c(NCc2ccco2)cc1Cl [Furosemide]
Raw Signal [3]: 53546
Z-score [4]: -0.3292

C=CC1=C(C)c2cc3[nH]c(cc4nc(cc5[nH]c(cc1n2)c(C)c5CCC(=O)O)C(CCC(=O)O)=C4C)c(C)c3C=C [Protoporphyrin IX disodium]
Raw Signal [3]: 54546
Z-score [4]: -0.2871

OC(CN1CCN(c2cccc(Cl)c2)CC1)C(c1ccccc1)c1ccccc1 (centres unmarked) [BRL 15572]
Raw Signal [3]: 57949
Z-score [5]: 0.006323

Cl.Fc1ccc(CN(C2=NCCN2)c2c(Cl)cccc2Cl)cc1 [IMID-4F hydrochloride]
Raw Signal [1]: 60859
Z-score [2]: 1.156

O=C(O)Cc1ccc(O)c(O)c1 [3,4-Dihydroxyphenylacetic acid]
Raw Signal [1]: 57060
Z-score [2]: 0.3844

Nc1nc2[nH]c(=O)cnc2c(=O)[nH]1 [Isoxanthopterin]
Raw Signal [1]: 59100
Z-score [2]: 0.7908

CNC[C@H](O)c1ccc(O)c(O)c1 [(-)-Epinephrine bitartrate]
Raw Signal [6]: 51229
Z-score [7]: -0.7998

CC(C)[C@@]1(NC(=O)[C@@H]2C[C@@H]3c4cccc5[nH]cc(c45)C[C@H]3N(C)C2)O[C@@]2(O)[C@@H]3CCCN3C(=O)[C@H](Cc3ccccc3)N2C1=O.CS(=O)(=O)O [Dihydroergocristine methanesulfonate]
Raw Signal [6]: 65195
Z-score (LOPAC single-point screen, Z-score from plate average and StDev): 2.037

Oc1ccc2c3c1O[C@H]1c4[nH]c5ccccc5c4C[C@@]4(O)[C@@H](C2)N(CC2CC2)CC[C@]314 [Naltrindole hydrochloride]
Raw Signal [3]: 53741
Z-score [4]: -0.1096

O=c1[nH]c2ccccc2n1CCCN1CCC(n2c(=O)[nH]c3cc(Cl)ccc32)CC1 [Domperidone]
Raw Signal [6]: 51707
Z-score [7]: -0.7027

Nc1ccc(CCNc2ncnc3c2ncn3[C@@H]2O[C@H](CO)[C@@H](O)[C@H]2O)cc1 [N6-2-(4-Aminophenyl)ethyladenosine]
Raw Signal [6]: 51199
Z-score [7]: -1.183

SKF 83565 hydrobromide
Raw Signal [1]: 61448
Z-score [2]: 1.054

Adenosine 3 ,5 -cyclic monophosphate
Raw Signal: 66195
Z-score: 1.459

Picrotoxin
Z-score [7]: -0.5599

CCCn1c(=O)c2[nH]c(C3CCCC3)nc2n(CCC)c1=O [8-Cyclopentyl-1,3-dipropylxanthine]
Raw Signal [3]: 55782
Z-score [5]: 0.1249

COc1cc(C(O)C(=O)O)ccc1O (racemic) [(±)-Vanillylmandelic acid]
Raw Signal [6]: 52849
Z-score [7]: -0.4708

Br.CCCN1CCc2cc(O)cc3c2[C@H]1Cc1ccc(O)c(O)c1-3
Raw Signal [6]: 52120
Z-score [7]: -0.6188

O=c1c(O)c(-c2ccc(O)c(O)c2)oc2cc(O)cc(O)c12 [Quercetin dihydrate]
Raw Signal [6]: 52548
Z-score [7]: -0.6753

C[C@H]1O[C@@H](n2cc(F)c(=O)[nH]c2=O)[C@H](O)[C@@H]1O [5-fluoro-5-deoxyuridine]
Raw Signal [3]: 53997
Z-score [4]: -0.2376
